The results in this text go back to ChEMBL document CHEMBL1255385, “Constitutive SoxS expression in a fluoroquinolone-resistant strain with a truncated SoxR protein and identification of a new member of the marA-soxS-rob regulon, mdtG” (2010).

Assay [1] has as its system Escherichia coli. The assay can be described thus: Antimicrobial activity against fluoroquinolone-susceptible Escherichia coli PS5 harboring GyrA S83L mutant gene by Etest. The class given is functional.
The test system of assay [2] is Escherichia coli. The assay can be described thus: Antimicrobial activity against fluoroquinolone-resistant Escherichia coli NorE5 harboring GyrA S83L mutant, ParC S80R mutant, truncated SoxR and constitutively active SoxS by Etest. The class given is functional.

Converted amounts (≈) assume the structure as drawn.

`COc1cc(Cc2cnc(N)nc2N)cc(OC)c1OC` [TRIMETHOPRIM]: the MIC stood at 0.5 µg/mL (≈ 1.72 µM) in assay [1] and 8 µg/mL (≈ 27.6 µM) in assay [2].

Regarding `O=C(N[C@H](CO)[C@H](O)c1ccc([N+](=O)[O-])cc1)C(Cl)Cl` [CHLORAMPHENICOL], the minimum inhibitory concentration (MIC) was found to be 8 µg/mL (≈ 24.8 µM) in assay [1] and 64 µg/mL (≈ 198 µM) in assay [2].

With `CC1(C)S[C@@H]2[C@H](NC(=O)[C@H](N)c3ccc(O)cc3)C(=O)N2[C@H]1C(=O)O` [AMOXICILLIN], the MIC in assay [1] was 48 µg/mL (≈ 131 µM); in assay [2], above 256 µg/mL.

For the molecule `NCC[C@H](O)C(=O)N[C@@H]1C[C@H](N)[C@@H](O[C@H]2O[C@H](CN)[C@@H](O)[C@H](O)[C@H]2O)[C@H](O)[C@H]1O[C@H]1O[C@H](CO)[C@@H](O)[C@H](N)[C@H]1O` [AMIKACIN], the MIC in assay [1] and in assay [2] was 12 µg/mL (≈ 20.5 µM) throughout.

For `CCn1cc(C(=O)O)c(=O)c2ccc(C)nc21` [NALIDIXIC ACID], the figures for the MIC in assay [1] and in assay [2] were 1020 µg/mL (≈ 4410 µM) and 2050 µg/mL (≈ 8820 µM), respectively.

As to `CN(C)[C@@H]1C(O)=C(C(N)=O)C(=O)[C@@]2(O)C(O)=C3C(=O)c4c(O)cccc4[C@@](C)(O)[C@H]3C[C@@H]12` [TETRACYCLINE], the results for the minimal inhibitory concentration (MIC) in assay [1] and in assay [2] were 2 µg/mL (≈ 4.5 µM) and 8 µg/mL (≈ 18 µM), respectively.

`CC[C@H]1OC(=O)[C@H](C)[C@@H](O[C@H]2C[C@@](C)(OC)[C@@H](O)[C@H](C)O2)[C@H](C)[C@@H](O[C@@H]2O[C@H](C)C[C@H](N(C)C)[C@H]2O)[C@](C)(O)C[C@@H](C)C(=O)[C@H](C)[C@@H](O)[C@]1(C)O` [ERYTHROMYCIN]: the MIC is 64 µg/mL (≈ 87.2 µM) in assay [1] and above 256 µg/mL in assay [2].

Take `CCn1cc(C(=O)O)c(=O)c2cc(F)c(N3CCNCC3)cc21` [NORFLOXACIN]: the MIC is 0.5 µg/mL (≈ 1.57 µM) in assay [1] and 32 µg/mL (≈ 100 µM) in assay [2].

For orientation: MIC means the least concentration at which growth counts as inhibited. A low value points to greater potency.
